In patent US20120010148A1, “COMBINATION THERAPIES USING NAP” (ALLON THERAPEUTICS INC., priority 2008, published 2012):
“Also recorded” adds a separate entry of the source.

Experiments:
normal aging rats = details: intranasal administration; cited from earlier work
[1] = system: closed head injury in mice; details: cited from earlier work
STOP+/− mice [2] = assay: Morris water maze and probe test; assay type: in vivo, mouse
Protocol: The NAP vehicle solution (termed DD), included the following ingredients (per milliliter): 7.5 mg of NaCl, 1.7 mg of citric acid monohydrate, 3 mg of disodium phosphate dihydrate, and 0.2 mg of benzalkonium chloride solution (50%) (Alcalay R N et al., Neurosci Lett, 361(1-3): 128-131 (2004)). NAP or vehicle solution (DD) was administered to mice hand-held in a semisupine position with nostrils facing the investigator. A pipette tip was used to administer 2.5 μl/nostril. The mouse was hand-held until the solution was totally absorbed (10 s). […]
The test measures the ability of rodents to learn and remember, by spatial navigation, the place of the hidden platform in a round water maze. […] Here, mice were monitored on five consecutive swimming days. […] The time required to reach the platform during the first daily test (indicative of learning and intact reference memory) and the time required to reach the platform in the second trial [indicative of short-term (working) memory] were measured and recorded separately. […] The platform was removed from the maze and the time spent by the mice in the pool's quadrant where the platform used to be was recorded. […] Mice were released into the water and the time taken to find the platform was recorded (maximum 60 seconds). […]

[3] = system: animal models simulating parts of the Alzheimer's disease pathology; details: in vivo; cited from earlier work
[4] = system: Human SH-SY5Y neuroblastoma; assay: Clozapine-induced cell death in SH-SY5Y cells, MTS assay; assay type: cell-based; details: 24 hours
Excerpt: Clozapine, a widely used anti psychotic drug may be associated with increased cell mortality. It was not known, however, whether NAP ([…], SEQ ID NO:2) treatment would inhibit clozapine associated neuronal death. To address this question and validate the efficiency of using a NAP-clozapine combination drug candidate, an experimental test system in cell culture was established (Heiser et al., Journal of Psychopharmacology 21(8):851-856 (2007)). Human SH-SY5Y neuroblastoma supplemented with 15% fetal calf serum (FCS) (Beit-Haemek, Israel), 1% penicillin-streptomycin, and 1% glutamine were incubated in a 5% CO2 atmosphere. Thirty-six thousand cells/well (in a 96 well plates) were plated 24 hours prior to the clozapine or NAP treatment. Clozapine (CLZ) was obtained from Sigma Chemicals (Sigma, Israel). Thirty-six thousand cells per well (in at least 6 replicate wells) were exposed to clozapine (CLZ, 20 μg/ml) or clozapine (CLZ, 20 μg/ml)+NAP or NAP alone (10^−15M-10^−10 M) for 24 hours at 37° C. Drug and control solutions were dissolved in ethanol. Measurement of metabolic activity and survival was determined by non-radioactive cell proliferation assay (MTS) (Promega, USA) and evaluated by an ELISA-reader at 490 nm wavelength.

[5] = system: ADNP-deficient mice, triple transgenic mouse model of AD, model of frontotemporal dementia; details: in vivo; cited from earlier work
ischemic injury = details: after ischemic injury; cited from earlier work
STOP+/− mice [6] = assay: Social recognition test; assay type: in vivo; details: 8-month-old STOP+/− mice; NAP 0.5 microgram/mouse/day, clozapine 3 mg/kg/day, FIG. 16
Protocol: In the social recognition test, 8-month-old mice (STOP+/−) were habituated for 20 minutes in a cage and then exposed to a new juvenile mouse (1.5-month old) for one minute—followed by a 30-minute interval and another 1 minute exposure four times (familiarizing the test subject with the juvenile mouse). The fifth exposure session included a novel juvenile mouse. Time spent interacting with the juvenile mouse was recorded.

[7] = system: model of fetal alcohol syndrome; details: in vivo, ip; cited from earlier work

Structure (SMILES): CC[C@H](C)[C@H](NC(=O)[C@H](CO)NC(=O)[C@@H](NC(=O)[C@@H]1CCCN1C(=O)[C@H](C)NC(=O)[C@@H](N)CC(N)=O)C(C)C)C(=O)N1CCC[C@H]1C(=O)N[C@@H](CCC(N)=O)C(=O)O [NAP]
- performance in the Morris water maze (normal aging rats): improved performance
- damage caused by closed head injury [1]: reduced damage
- probe test, time in area where the platform used to be (spatial memory) (STOP+/− mice [2]; Example 3, STOP+/− male mice, 5th day, NAP intranasal 0.5 μg/mouse/day or clozapine IP, FIG. 10): significantly improved the performance; also recorded: significantly more time
- Morris water maze learning and memory (STOP+/− mice [2]; Example 4, STOP+/− mice, NAP 0.5 microgram/mouse/day, clozapine 3 mg/kg/day, FIG. 13): protection against adverse clozapine effects on learning
- protection in Alzheimer's disease pathology models [3]: protective
- effect on clozapine induced cell death ([4]; NAP 10^−15M with clozapine 20 μg/ml, FIG. 1): reversed
- cell mortality with NAP alone ([4]; NAP alone 10^−15M-10^−10 M, FIG. 2): does not affect cell mortality; also recorded: did not affect cell mortality
- tau hyperphosphorylation and cognitive functions [5]: reduces tau hyperphosphorylation and enhances cognitive functions
- infarct volume and motor function deficits (ischemic injury): reduced infarct volume and motor function deficits
- social recognition behavior (STOP+/− mice [6]): partially ameliorated
- fetal death after intraperitoneal injection of alcohol [7]: inhibited
